Tests used:
5-LO [1] = target: T1, 5-LO (Homo sapiens, UniProt P09917); assay: 5-LO product formation in intact PMNLs (cell-based assay); settings: 1 µM ionomycin plus 20 µM AA, read-out: 5-LO cell-based assay (IC50 in µmol l^-1)
T1 sequence (P09917 1-674): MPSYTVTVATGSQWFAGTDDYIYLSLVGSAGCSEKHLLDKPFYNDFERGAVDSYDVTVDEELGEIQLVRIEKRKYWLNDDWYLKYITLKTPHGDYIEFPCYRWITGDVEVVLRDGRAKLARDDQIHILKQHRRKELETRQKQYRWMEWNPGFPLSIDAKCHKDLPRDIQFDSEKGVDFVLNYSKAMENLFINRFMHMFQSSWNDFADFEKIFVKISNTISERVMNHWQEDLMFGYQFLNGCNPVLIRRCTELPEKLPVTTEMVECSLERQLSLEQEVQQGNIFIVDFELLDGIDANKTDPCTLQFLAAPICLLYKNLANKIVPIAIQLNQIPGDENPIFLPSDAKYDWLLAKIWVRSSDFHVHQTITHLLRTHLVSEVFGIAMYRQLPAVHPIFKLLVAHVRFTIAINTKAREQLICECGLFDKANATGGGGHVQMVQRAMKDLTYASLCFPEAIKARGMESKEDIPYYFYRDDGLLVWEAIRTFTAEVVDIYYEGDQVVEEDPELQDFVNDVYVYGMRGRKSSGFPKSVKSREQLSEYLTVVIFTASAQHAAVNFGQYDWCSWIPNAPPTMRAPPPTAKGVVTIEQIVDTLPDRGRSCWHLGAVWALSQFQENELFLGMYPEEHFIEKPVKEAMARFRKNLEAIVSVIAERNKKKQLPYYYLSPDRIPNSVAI
Protocol: (§1) To assay 5- and 15-lipoxygease (LO) product formation in intact cells, 7.5 x 10^6 freshly isolated PMNLs were finally resuspended in 1 ml of PGC buffer. After preincubation with the test compounds for 10 min at 37°C, the reaction was started by the addition of 1 µM ionomycin plus 20 µM AA. After 10 min at 37°C, the reaction was stopped with 1 ml of methanol and 30 µl of 1 N HCl, and 200 ng of prostaglandin B1 and 500 µl of PBS were added. Formed AA metabolites were extracted and analyzed by HPLC. To determine product formation of purified 5-LO enzyme, 5-LO protein (0.1 µg in 10 µl) was added to 990 µl of PBS containing 1 mM EDTA and 1 mM ATP on ice and the indicated compounds were added. After 5 to 10 min on ice, the samples were preincubated for 30 s at 37°C and CaCl2 and AA (2 mM and 10 µM, respectively) were added to start the 5-LO reaction. After 10 min, the incubation was terminated and 5-LO product formation was determined as described for the intact cells.

5-LO [2] = target: T1, 5-LO; assay: 5-LO product formation of purified 5-LO enzyme (cell-free assay); format: biochemical; settings: 10 µM AA, 2 mM CaCl2, read-out: 5-LO cell-free assay (IC50 in µmol l^-1)
Protocol: as §1

mPGES-1 = target: T2, mPGES-1 (Homo sapiens, UniProt O14684); assay: Determination of PGE2 synthase activity in microsomes of A549 cells; format: biochemical; settings: PGH2 substrate, 15 min preincubation at 4°C, read-out: mPGES-1 (IC50 in µmol l^-1)
T2 construct: Determination of PGE2 synthase activity in microsomes of A549 cells; endogenous in cells; host or cells: A549 cells (microsomal membranes)
T2 sequence (O14684 1-152): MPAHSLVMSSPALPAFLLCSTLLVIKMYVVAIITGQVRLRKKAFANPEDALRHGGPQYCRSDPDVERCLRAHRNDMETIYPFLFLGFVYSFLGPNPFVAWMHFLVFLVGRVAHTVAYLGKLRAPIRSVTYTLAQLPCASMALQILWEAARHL
Protocol: Example 9 - Determination of PGE2 synthase activity in microsomes of A549 cells
(A. Koeberle, F. Pollastro, H. Northoff and O. Werz, Br. J. Pharmacol. 2009, 156, 952-961.)
Microsomal membranes were diluted in potassium phosphate buffer (0.1 mol·1^-1, pH 7.4) containing 2.5 mmol·l^-1 glutathione.
Test compounds or vehicle were added, and after 15 min at 4°C the reaction ([…]) was initiated by addition of PGH2 ([…], final concentration). After 1 min at 4°C, the reaction was terminated by using stop solution (100 ml; 40 mmol·l^-1 FeCl2, 80 mmol·l^-1 citric acid and 10 mmol·l^-1 of 11b-PGE2). PGE2 was separated by solid phase extraction on reversed phase (RP)-C18 material by using acetonitrile (200 ml) as eluent, and analysed by RP-HPLC (30% acetonitrile in water + 0.007% TFA (v,v), Nova-Pak® C18 column, 5 x 100 mm, 4 mm particle size, flow rate 1 m-·min^-1) with UV detection at 195 nm. 11b-PGE2 was used as internal standard to quantify PGE2 product formation by integration of the area under the peaks.

Cell lines = assay: Determination of cell viability by MTT assay (apoptose induction); format: cell-based; settings: cell line not given, read-out: Apoptose induction (EC50 in µmol l^-1)
Protocol: Example 11 - Determination of cell viability by MTT assay
(I. Tretiakova, D. Blaesius, L. Maxia, S. Wesselborg, K. Schulze-Osthoff, J CinatlJr., M. Michaelis, O. Werz, Apoptosis 2008, 13, 119-131.)
Cell viability was assessed using the MTT assay. Cell lines were incubated at 37°C and 5% CO2 atmosphere with the indicated additives for 5 days. PBMC were treated for 40 h and in some experiments, MM6 cells were only treated for 24 h. DMSO was used as solvent never exceeding 0.5% (vol/vol). Then, MTT reagent was added for 4 h. Thereafter, 100 II SDS solution (20% SDS in a 1:1 (vol by vol) dimethylformamide/ water solution) was added for 4 h. Plates were read on a multiwell scanning spectrophotometer (Victor3 plate reader, PerkinElmer, Rodgau-Juegesheim, Germany) at a wavelength of 620 nm and a reference wavelength of 690 nm. Induction of cell death was determined as the relative reduction of the optical density.

Compound	IC50 (5-LO [1]) [nM]	IC50 (5-LO [2]) [nM]	IC50 (mPGES-1) [nM]	EC50 (Cell lines) [nM]
O=C1C(C(c2ccccc2)c2c(O)c(C(=O)c3ccccc3)c(O)c(C(C3=C(O)c4ccccc4C3=O)c3ccccc3)c2O)=C(O)c2ccccc21 (racemic) [(Ih), 2,2'-(5-Benzoyl-2,4,6-trihydroxy-1,3-phenylene)bis(phenylmethylene)bis(3-hydroxy-1H-inden-1-one)]	840	2990	330	> 30000
CCCCCC(=O)c1c(O)c(C(C2=C(O)c3ccccc3C2=O)c2ccccc2)c(O)c(C(C2=C(O)c3ccccc3C2=O)c2ccccc2)c1O (racemic) [Compound (Ig), 2,2'-(5-Hexanoyl-2,4,6-trihydroxy-1,3-phenylene)bis(phenylmethylene)bis(3-hydroxy-1H-inden-1-one)]	2090	1100	390	> 30000
CCCCCC(=O)c1c(O)c(C(C2=C(O)c3ccccc3C2=O)C(C)C)c(O)c(C(C2=C(O)c3ccccc3C2=O)C(C)C)c1O (centres unmarked) [Compound (Ib), 2,2'-(1,1'-(5-Hexanoyl-2,4,6-trihydroxy-1,3-phenylene)bis(2-methylpropane-1,1-diyl))bis(3-hydroxy-1H-inden-1-one)]	1460	1740	80	> 30000
CC(C)C(=O)c1c(O)c(C(C2=C(O)c3ccccc3C2=O)C(C)C)c(O)c(C(C2=C(O)c3ccccc3C2=O)C(C)C)c1O (centres unmarked) [Compound (Ia), 2,2'-(1,1'-(2,4,6-Trihydroxy-5-isobutyryl-1,3-phenylene)bis(2-methylpropane-1,1-diyl))bis(3-hydroxy-1H-inden-1-one)]	6700	2800	300	> 30000
CC(C)C(C1=C(O)c2ccccc2C1=O)c1c(O)c(C(=O)c2ccccc2)c(O)c(C(C2=C(O)c3ccccc3C2=O)C(C)C)c1O (centres unmarked) [Compound (Id), 2,2'-(1,1'-(5-Benzoyl-2,4,6-trihydroxy-1,3-phenylene)bis(2-methylpropane-1,1-diyl))bis(3-hydroxy-1H-inden-1-one)]	3230	6860	680	> 30000
CC(C)C(=O)c1c(O)c(C(C2=C(O)c3ccccc3C2=O)c2ccccc2)c(O)c(C(C2=C(O)c3ccccc3C2=O)c2ccccc2)c1O (racemic) [Compound (Ie), 2,2'-(2,4,6-Trihydroxy-5-isobutyryl-1,3-phenylene)bis(phenylmethylene)bis(3-hydroxy-1H-inden-1-one)]	620	730	550	> 30000
CC(C)CC(=O)c1c(O)c(C(C2=C(O)c3ccccc3C2=O)c2ccccc2)c(O)c(C(C2=C(O)c3ccccc3C2=O)c2ccccc2)c1O (racemic) [(If), 2,2'-(2,4,6-Trihydroxy-5-(3-methylbutanoyl)-1,3-phenylene)bis(phenylmethylene)bis(3-hydroxy-1H-inden-1-one)]	690	460	190	> 30000
CC(C)CC(=O)c1c(O)c(C(C2=C(O)c3ccccc3C2=O)C(C)C)c(O)c(C(C2=C(O)c3ccccc3C2=O)C(C)C)c1O (centres unmarked) [Compound (Ic), 2,2'-(1,1'-(2,4,6-Trihydroxy-5-(3-methylbutanoyl)-1,3-phenylene)bis(2-methylpropane-1,1-diyl))bis(3-hydroxy-1H-inden-1-one)]	1040	300	180	> 30000

From EP2695874A1, “Myrtucommulone analogues” (Universität des Saarlandes, priority 2012, dated 2014)
